Assay [1] addresses PIK3CD (Human) (UniProt O00329). The experiment in a line: Enzyme Assay.
In the next assay the target is PIK3CB (Human) (UniProt P42338). The assay can be described thus: Enzyme Assay.
In a further assay the target is PIK3CA (human) (UniProt P42336). The experiment in a line: Enzyme Assay.
The target of another assay is PIK3CG (human) (UniProt P48736). The assay can be described thus: Enzyme Assay.
For assay [2], the target named is PIK3CD (Human) (UniProt O00329). The assay can be described thus: Cell-Based Assay. The following applies: raji.

Molecules are shown by their SMILES. pIC50: −log10 of the molar value. Several values for one entry are separate records, joined by “and”; a condition that tells them apart may be missing. Equal entries are not always repeated. A value given as a limit tells only on which side of the number the result lay.

PIK3CG (human), sequence (P48736 whole entry, looked up): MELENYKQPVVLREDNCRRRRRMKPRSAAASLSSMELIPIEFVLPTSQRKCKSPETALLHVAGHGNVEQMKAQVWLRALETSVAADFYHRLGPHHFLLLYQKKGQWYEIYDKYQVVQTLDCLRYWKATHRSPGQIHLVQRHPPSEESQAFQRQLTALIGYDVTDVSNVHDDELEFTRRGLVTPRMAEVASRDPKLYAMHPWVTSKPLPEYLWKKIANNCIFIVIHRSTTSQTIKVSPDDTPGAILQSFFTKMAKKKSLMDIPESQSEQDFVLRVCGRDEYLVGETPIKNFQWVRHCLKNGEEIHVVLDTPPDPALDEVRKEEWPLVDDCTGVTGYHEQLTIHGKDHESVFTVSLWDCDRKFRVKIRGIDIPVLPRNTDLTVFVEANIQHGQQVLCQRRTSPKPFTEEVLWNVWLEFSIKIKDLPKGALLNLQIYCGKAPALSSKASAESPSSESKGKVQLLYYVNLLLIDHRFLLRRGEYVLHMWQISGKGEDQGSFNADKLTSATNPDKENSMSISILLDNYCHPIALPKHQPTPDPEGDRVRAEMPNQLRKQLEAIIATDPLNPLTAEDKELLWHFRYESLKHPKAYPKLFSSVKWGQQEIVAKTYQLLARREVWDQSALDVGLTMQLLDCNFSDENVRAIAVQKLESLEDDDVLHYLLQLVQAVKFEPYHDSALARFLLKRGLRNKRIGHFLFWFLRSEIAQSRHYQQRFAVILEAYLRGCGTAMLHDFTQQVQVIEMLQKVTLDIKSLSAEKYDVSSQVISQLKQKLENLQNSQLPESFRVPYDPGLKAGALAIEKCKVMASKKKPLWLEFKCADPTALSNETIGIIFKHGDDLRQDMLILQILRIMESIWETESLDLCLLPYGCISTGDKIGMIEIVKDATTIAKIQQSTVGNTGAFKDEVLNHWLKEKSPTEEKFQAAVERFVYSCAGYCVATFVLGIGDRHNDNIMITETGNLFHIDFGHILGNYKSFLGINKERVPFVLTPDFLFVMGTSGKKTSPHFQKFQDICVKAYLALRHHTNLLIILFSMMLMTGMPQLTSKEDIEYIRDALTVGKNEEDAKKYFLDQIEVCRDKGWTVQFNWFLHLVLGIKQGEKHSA
PIK3CB (Human), sequence (P42338 whole entry, looked up): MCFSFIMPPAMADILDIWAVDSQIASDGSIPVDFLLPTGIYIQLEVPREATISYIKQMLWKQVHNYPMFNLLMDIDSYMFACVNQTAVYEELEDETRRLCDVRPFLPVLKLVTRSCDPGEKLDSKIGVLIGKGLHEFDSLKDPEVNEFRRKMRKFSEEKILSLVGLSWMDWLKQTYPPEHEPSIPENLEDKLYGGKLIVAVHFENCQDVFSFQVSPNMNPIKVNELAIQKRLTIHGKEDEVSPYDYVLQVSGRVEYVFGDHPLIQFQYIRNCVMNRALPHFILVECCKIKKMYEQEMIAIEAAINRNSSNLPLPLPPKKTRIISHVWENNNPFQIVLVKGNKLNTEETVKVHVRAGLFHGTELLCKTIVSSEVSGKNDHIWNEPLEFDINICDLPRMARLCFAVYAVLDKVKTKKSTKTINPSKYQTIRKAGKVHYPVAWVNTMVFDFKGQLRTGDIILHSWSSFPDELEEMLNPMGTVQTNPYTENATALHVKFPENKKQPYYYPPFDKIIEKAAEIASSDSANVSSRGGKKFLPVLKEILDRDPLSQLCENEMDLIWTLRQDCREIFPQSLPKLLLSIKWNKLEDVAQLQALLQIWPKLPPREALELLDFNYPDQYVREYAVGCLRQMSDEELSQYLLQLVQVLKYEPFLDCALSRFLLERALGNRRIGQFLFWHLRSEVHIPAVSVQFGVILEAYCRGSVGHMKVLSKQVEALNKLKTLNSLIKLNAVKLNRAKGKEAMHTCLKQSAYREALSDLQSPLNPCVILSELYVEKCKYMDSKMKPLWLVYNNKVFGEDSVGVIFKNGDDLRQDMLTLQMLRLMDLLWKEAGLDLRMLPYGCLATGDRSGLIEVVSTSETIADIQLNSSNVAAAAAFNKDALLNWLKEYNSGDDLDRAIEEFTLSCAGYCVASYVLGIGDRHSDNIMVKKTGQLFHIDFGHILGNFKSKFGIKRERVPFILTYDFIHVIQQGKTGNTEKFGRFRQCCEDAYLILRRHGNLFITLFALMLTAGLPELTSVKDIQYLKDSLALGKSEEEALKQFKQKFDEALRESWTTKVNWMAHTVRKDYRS
PIK3CA (human), sequence (P42336 whole entry, looked up): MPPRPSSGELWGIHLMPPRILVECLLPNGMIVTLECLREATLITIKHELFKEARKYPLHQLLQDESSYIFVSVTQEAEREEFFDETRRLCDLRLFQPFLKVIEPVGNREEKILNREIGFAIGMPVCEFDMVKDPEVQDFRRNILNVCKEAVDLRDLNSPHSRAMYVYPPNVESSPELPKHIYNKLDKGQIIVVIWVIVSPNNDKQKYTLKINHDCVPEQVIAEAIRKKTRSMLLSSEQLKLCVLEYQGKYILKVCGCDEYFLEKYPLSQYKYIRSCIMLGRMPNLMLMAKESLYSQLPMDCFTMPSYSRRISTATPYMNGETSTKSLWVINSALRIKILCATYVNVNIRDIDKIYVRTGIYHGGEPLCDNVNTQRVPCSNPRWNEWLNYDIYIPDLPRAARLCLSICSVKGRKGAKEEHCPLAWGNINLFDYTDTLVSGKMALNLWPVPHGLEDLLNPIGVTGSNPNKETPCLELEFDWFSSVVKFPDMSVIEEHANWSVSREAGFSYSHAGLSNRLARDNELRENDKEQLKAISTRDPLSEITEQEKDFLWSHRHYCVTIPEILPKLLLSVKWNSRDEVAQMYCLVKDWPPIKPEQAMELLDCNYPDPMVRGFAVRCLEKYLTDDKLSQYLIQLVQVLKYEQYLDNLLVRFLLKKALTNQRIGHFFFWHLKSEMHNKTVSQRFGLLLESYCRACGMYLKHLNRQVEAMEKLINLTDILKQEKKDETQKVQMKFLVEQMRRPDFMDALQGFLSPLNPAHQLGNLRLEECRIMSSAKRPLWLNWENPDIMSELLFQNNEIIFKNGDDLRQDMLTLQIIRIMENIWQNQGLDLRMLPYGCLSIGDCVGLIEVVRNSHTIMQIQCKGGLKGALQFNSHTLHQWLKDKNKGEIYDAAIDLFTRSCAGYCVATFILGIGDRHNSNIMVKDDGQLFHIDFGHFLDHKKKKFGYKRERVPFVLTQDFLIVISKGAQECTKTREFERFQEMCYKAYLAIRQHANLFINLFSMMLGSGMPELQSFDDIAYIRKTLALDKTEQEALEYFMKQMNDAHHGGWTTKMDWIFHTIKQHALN
PIK3CD (Human), sequence (O00329 whole entry, looked up): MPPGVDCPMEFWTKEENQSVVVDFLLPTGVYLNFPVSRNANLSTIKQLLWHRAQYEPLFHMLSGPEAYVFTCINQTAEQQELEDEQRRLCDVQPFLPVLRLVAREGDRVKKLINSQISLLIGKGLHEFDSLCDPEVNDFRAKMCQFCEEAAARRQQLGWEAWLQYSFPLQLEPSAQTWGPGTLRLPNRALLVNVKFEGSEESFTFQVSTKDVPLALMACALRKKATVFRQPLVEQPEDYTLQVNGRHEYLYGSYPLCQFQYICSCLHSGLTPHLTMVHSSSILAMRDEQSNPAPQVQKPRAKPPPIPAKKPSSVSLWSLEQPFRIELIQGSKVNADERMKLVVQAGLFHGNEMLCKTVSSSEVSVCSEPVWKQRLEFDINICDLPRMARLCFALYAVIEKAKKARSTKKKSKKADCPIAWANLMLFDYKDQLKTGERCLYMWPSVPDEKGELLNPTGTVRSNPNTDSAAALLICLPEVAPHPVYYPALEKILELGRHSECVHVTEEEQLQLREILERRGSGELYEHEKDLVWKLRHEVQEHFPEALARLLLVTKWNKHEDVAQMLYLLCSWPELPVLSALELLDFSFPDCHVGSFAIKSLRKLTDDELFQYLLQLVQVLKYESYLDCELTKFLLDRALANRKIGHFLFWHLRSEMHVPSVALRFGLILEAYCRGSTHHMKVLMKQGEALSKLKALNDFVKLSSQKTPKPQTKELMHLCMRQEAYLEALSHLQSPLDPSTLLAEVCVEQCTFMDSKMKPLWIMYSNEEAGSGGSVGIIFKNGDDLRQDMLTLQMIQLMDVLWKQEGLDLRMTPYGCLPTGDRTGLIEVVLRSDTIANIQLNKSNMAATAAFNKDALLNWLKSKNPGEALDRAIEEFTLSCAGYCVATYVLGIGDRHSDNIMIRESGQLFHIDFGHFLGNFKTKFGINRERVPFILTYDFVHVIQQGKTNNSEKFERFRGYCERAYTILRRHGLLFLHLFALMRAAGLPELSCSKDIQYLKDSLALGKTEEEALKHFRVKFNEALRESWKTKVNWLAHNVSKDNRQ

By pIC50 is commonly meant the negative decadic logarithm of the IC50, by convention in mol/L. A high value points to a low IC50. For `COc1cc(-c2csc3cc([C@H](C)NC(=O)c4c(N)nn5cccnc45)n(-c4ccccc4)c(=O)c23)ccn1`, the pIC50 on PIK3CD (Human) [1], on PIK3CB (Human), against PIK3CA (human) and at PIK3CG (human) was at most 5.00 in each case.

In the case of `C[C@H](NC(=O)c1c(N)nn2cccnc12)c1nn2ccc(Cl)c2c(=O)n1-c1ccccc1`, the pIC50 against PIK3CD (Human) [1], at PIK3CB (Human), on PIK3CA (human) and at PIK3CG (human) was at most 5.00 throughout.

For `C[C@H](NC(=O)c1c(N)nn2cccnc12)c1cc2cccc(C#CCNC(=O)[C@@H]3CCC(=O)O3)c2c(=O)n1-c1ccccc1`, the pIC50 at PIK3CD (Human) [2] was over 7.00; against PIK3CD (Human) [1], 6.00 to 7.00; against PIK3CB (Human) it was 6.00 to 7.00; on PIK3CA (human), 6.00 to 7.00; at PIK3CG (human) it was over 7.00.

`C[C@H](NC(=O)c1cc(-c2cccc(NS(C)(=O)=O)c2)cnc1N)c1cc2cccc(Cl)c2c(=O)n1-c1ccccc1`: the pIC50 on PIK3CD (Human) [1], on PIK3CB (Human), on PIK3CA (human) and on PIK3CG (human) was at most 5.00 each time.

For the compound `C[C@H](NC(=O)c1c(N)nn2cccnc12)c1cc2cccc(/C=C/c3ccccc3)c2c(=O)n1-c1ccccc1`, the pIC50 against PIK3CD (Human) [1], at PIK3CB (Human), at PIK3CA (human) and against PIK3CG (human) was at most 5.00 each time.

For the compound `C[C@H](NC(=O)c1c(N)nn2cccnc12)c1cc2cccc(NC3CCCCC3)c2c(=O)n1-c1ccccc1`, the pIC50 on PIK3CD (Human) [1], on PIK3CB (Human), on PIK3CA (human) and against PIK3CG (human) was at most 5.00 each time.

`C[C@H](NC(=O)c1c(N)nn2cccnc12)c1nn2ccc(-c3cnn(C)c3)c2c(=O)n1-c1ccccc1`: the pIC50 against PIK3CD (Human) [1], against PIK3CB (Human), against PIK3CA (human) and against PIK3CG (human) was at most 5.00 each time.

`C[C@H](NC(=O)c1nc(-c2cccc(NS(C)(=O)=O)c2)cnc1N)c1cc2cccc(Cl)c2c(=O)n1C`: the pIC50 at PIK3CD (Human) [2] was over 7.00; against PIK3CD (Human) [1] it was 6.00 to 7.00; on PIK3CB (Human), over 7.00; against PIK3CA (human) it was 6.00 to 7.00; on PIK3CG (human), over 7.00.

For `C[C@H](NC(=O)c1nc(-c2cccc(S(=O)(=O)NC3CC3)c2)cnc1N)c1cc2cccc(Cl)c2c(=O)n1C`, the pIC50 at PIK3CD (Human) [2] is over 7.00; against PIK3CD (Human) [1] it was 6.00 to 7.00; on PIK3CB (Human), over 7.00; against PIK3CA (human), 6.00 to 7.00; at PIK3CG (human) it was over 7.00.

Turning to `CC(=O)Nc1ncc(-c2cccc(NS(C)(=O)=O)c2)nc1C(=O)N[C@@H](C)c1cc2cccc(Cl)c2c(=O)n1C`, the pIC50 at PIK3CD (Human) [1], against PIK3CB (Human), at PIK3CA (human) and against PIK3CG (human) was at most 5.00 in each case.

As to `C[C@H](NC(=O)c1c(N)nn2ccc(-c3cccc(S(C)(=O)=O)c3)nc12)c1cc2cccc(Cl)c2c(=O)n1-c1ccccc1`, the pIC50 on PIK3CD (Human) [2], at PIK3CD (Human) [1], against PIK3CB (Human), at PIK3CA (human) and on PIK3CG (human) was over 7.00 each time.

On to `C[C@H](NC(=O)c1c(N)nn2cccnc12)c1cc2cccc(CN(C)C)c2c(=O)n1-c1ccccc1`, for which the pIC50 on PIK3CD (Human) [1] was over 7.00; on PIK3CB (Human), at most 5.00; at PIK3CA (human), at most 5.00; against PIK3CG (human), at most 5.00.

For the compound `COc1cccc(-c2cnc(N)c(C(=O)N[C@@H](C)c3cc4cccc(Cl)c4c(=O)n3-c3ccccc3)n2)c1`, the pIC50 at PIK3CD (Human) [1], on PIK3CB (Human), against PIK3CA (human) and at PIK3CG (human) was at most 5.00 each time.

On to `C[C@H](NC(=O)c1c(N)nn2cccnc12)c1cc2cccc(N3CCN(C)CC3)c2c(=O)n1-c1ccccc1`, for which the pIC50 against PIK3CD (Human) [1], against PIK3CB (Human), on PIK3CA (human) and on PIK3CG (human) was at most 5.00 throughout.

For the compound `C[C@H](NC(=O)c1c(N)nn2cccnc12)c1cc2cccc(Cl)c2c(=O)n1CCN(C)C`, the negative logarithm of the IC50 (pIC50) against PIK3CD (Human) [2] is over 7.00; against PIK3CD (Human) [1], over 7.00; against PIK3CB (Human) it was over 7.00; at PIK3CA (human), at most 5.00.

For `C[C@H](NC(=O)c1nc(-c2ccccc2)cnc1N)c1cc2cccc(Cl)c2c(=O)n1-c1ccccc1`, the pIC50 against PIK3CD (Human) [2] was 6.00 to 7.00; on PIK3CD (Human) [1], at most 5.00; at PIK3CB (Human), at most 5.00; against PIK3CA (human) it was at most 5.00.

With `CC(=O)N(C)Cc1cccc2cc([C@H](C)NC(=O)c3c(N)nn4cccnc34)n(-c3ccccc3)c(=O)c12`, the pIC50 at PIK3CD (Human) [1] is over 7.00; at PIK3CB (Human), at most 5.00; at PIK3CA (human), at most 5.00; against PIK3CG (human) it was at most 5.00.

For the compound `C[C@H](NC(=O)c1nc(-c2cccc(S(=O)(=O)N3CCOCC3)c2)cnc1N)c1cc2cccc(Cl)c2c(=O)n1-c1ccccc1`, the pIC50 on PIK3CD (Human) [1], against PIK3CB (Human), on PIK3CA (human) and at PIK3CG (human) was at most 5.00 in each case.

In the case of `COc1cc(-c2cccc3cc(C(C)NC(=O)c4c(N)nn5cccnc45)c(-c4ccccc4)nc23)ccn1` (stereo unspecified), the pIC50 on PIK3CD (Human) [2] was 6.00 to 7.00; against PIK3CD (Human) [1] it was at most 5.00; against PIK3CB (Human) it was at most 5.00; against PIK3CA (human), at most 5.00.

For the compound `C[C@H](NC(=O)c1nc(-c2cncc(NS(C)(=O)=O)c2)cnc1N)c1cc2cccc(Cl)c2c(=O)n1C1CC1`, the pIC50 against PIK3CD (Human) [1], at PIK3CB (Human), at PIK3CA (human) and against PIK3CG (human) was over 7.00 in each case.

As to `CC(C)Oc1ccc(-c2cnc(N)c(C(=O)N[C@@H](C)c3cc4cccc(Cl)c4c(=O)n3-c3ccccc3)n2)cc1Cl`, the pIC50 against PIK3CD (Human) [2], against PIK3CD (Human) [1], against PIK3CB (Human) and against PIK3CA (human) was at most 5.00 throughout.

For `CC(C)Nc1cccc2cc([C@H](C)NC(=O)c3c(N)nn4cccnc34)n(-c3ccccc3)c(=O)c12`, the pIC50 against PIK3CD (Human) [1], against PIK3CB (Human), against PIK3CA (human) and against PIK3CG (human) was at most 5.00 each time.

For `C[C@H](NC(=O)c1nccnc1N)c1cc2cccc(-c3cc[nH]n3)c2c(=O)n1-c1ccccc1`, the pIC50 against PIK3CD (Human) [2] was over 7.00; against PIK3CD (Human) [1] it was 6.00 to 7.00; at PIK3CB (Human), at most 5.00; against PIK3CA (human), at most 5.00.

Turning to `Nc1nn2cccnc2c1C(=O)NCc1cc2cccc(Cl)c2c(=O)n1-c1ccccc1`, the pIC50 at PIK3CD (Human) [1], on PIK3CB (Human), at PIK3CA (human) and on PIK3CG (human) was at most 5.00 throughout.

As for `CC(C)c1ccnc2c(C(=O)N[C@@H](C)c3cc4cccc(Cl)c4c(=O)n3-c3ccccc3)c(N)nn12`, the pIC50 against PIK3CD (Human) [1], at PIK3CB (Human), at PIK3CA (human) and against PIK3CG (human) was at most 5.00 throughout.

In the case of `C[C@H](NC(=O)c1c(N)nn2c1NCCC2)c1cc2cccc(Cl)c2c(=O)n1-c1ccccc1`, the pIC50 at PIK3CD (Human) [1], on PIK3CB (Human), against PIK3CA (human) and against PIK3CG (human) was at most 5.00 in each case.

`CC(C)Oc1ccc(-c2cnc(N)c(C(=O)N[C@@H](C)c3cc4cccc(Cl)c4c(=O)n3-c3ccccc3)n2)cc1`: the pIC50 against PIK3CD (Human) [2], against PIK3CD (Human) [1], at PIK3CB (Human) and against PIK3CA (human) was at most 5.00 in each case.

Regarding `C[C@H](NC(=O)c1c(N)nn2cccnc12)c1cc2cccc(F)c2c(=O)n1-c1ccccc1`, the negative logarithm of the IC50 (pIC50) on PIK3CD (Human) [2] was over 7.00; on PIK3CD (Human) [1], ≤ 5.00 and 6.00 to 7.00; on PIK3CB (Human), ≤ 5.00 and 6.00 to 7.00; against PIK3CA (human), at most 5.00.

The values above are taken from the Kinase Knowledgebase extract (Sharma et al. 2016).
